US20260109707A1, “HETEROBIFUNCTIONAL COMPOUNDS AND METHODS OF TREATING DISEASE” (Halda Therapeutics OpCo. Inc., priority 2022, published 2026)
Read-outs that look alike come from different tables or passages of the source.

Key:
[1] = system: T-Rex 293 cell line SC3 cells lacking increased expression of androgen receptor protein; test: Cellular growth inhibition assay, T-Rex 293 SC3 cells without doxycycline (CellTiter-Glo, 72 hours); assay type: cell-based; conditions: T-Rex 293 cell line SC3 cells not exposed to doxycycline (lacking increased androgen receptor expression)
In short: (§1)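 Growth inhibition is measured in an inducible AR-expressing T-Rex 293 clone, SC3, cultured with or without 10 ng/mL doxycycline in hormone-depleted medium. Test compounds are applied for 72 hours. GI50 values derive from CellTiter-Glo 2.0 signal fitted by four-parameter regression.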

[2] = system: T-Rex 293 cell line SC3 cells having increased expression of androgen receptor protein due to exposure to doxycycline; test: Cellular growth inhibition assay, T-Rex 293 SC3 cells with doxycycline (CellTiter-Glo, 72 hours); assay type: cell-based; conditions: T-Rex 293 SC3 cells with increased androgen receptor expression due to doxycycline (10 ng/mL)
In short: as §1

VCaP cells = test: Cellular growth inhibition assay for VCaP cells (CellTiter-Glo, 72 hours); assay type: cell-based, human
In short: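 Luminescent viability signal after 72 h of compound exposure gave GI50 values by four-parameter nonlinear regression. Compounds were added in 0.5% DMSO to cells plated 24 h earlier at 5000/well in DMEM containing 10% FBS.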

SMILES	GI50 (VCaP cells) [µM]	GI50 (VCaP cells; Homo sapiens, VCaP, 72 h) [µM]	GI50 [1] [µM]	GI50 [2] [µM]	GI50 ([1]; 72 h) [µM]	GI50 ([2]; 72 h) [µM]
Cc1sc2c(c1C)C(c1ccc(CC3CCC4(CCCN(c5ccc(C(=O)N[C@H]6CC[C@H](Oc7ccc(C#N)c(Cl)c7)CC6)nn5)C4)C3)cn1)=N[C@@H](C)c1nnc(C)n1-2 (stereo partly drawn) [I-623]	0.5 to 1.5	–	0.5 to 1.5	< 0.5	–	–
Cc1sc2c(c1C)C(c1ccc(N3CCC4(CC3)CCN(c3ccc(C(=O)N[C@H]5CC[C@H](Oc6ccc(C#N)c(Cl)c6)CC5)nn3)C4)cn1)=NC1(CC1)c1nnc(C)n1-2 [I-502]	–	> 3	–	–	> 3	< 0.5
CC[C@@H]1N=C(c2ccc(N3CCC4(CCN(c5ccc(C(=O)N[C@H]6CC[C@H](Oc7ccc(C#N)c(Cl)c7)CC6)nn5)CC4)C3)cc2)c2c(sc(C)c2C)-n2c(C)nnc21 [I-599]	–	> 3	–	–	> 3	< 0.5
Cc1sc2c(c1C)C(c1ccc(N3C4CCC3CC3(CCN(c5ccc(C(=O)N[C@H]6CC[C@H](Oc7ccc(C#N)c(Cl)c7)CC6)nn5)C3)C4)cc1)=N[C@@H](C)c1nnc(C)n1-2 (stereo partly drawn) [I-698]	–	< 0.5	< 0.5	< 0.5	–	–
Cc1sc2c(c1C)C(c1ccc(OC3CC4(C3)CC3(CCN(c5ccc(C(=O)N[C@H]6CC[C@H](Oc7ccc(C#N)c(Cl)c7)CC6)nn5)CC3)C4)nc1)=NC1(CC1)c1nnc(C)n1-2 [I-504]	–	< 0.5	–	–	0.5 to 1.5	< 0.5
Cc1sc2c(c1C)C(c1ccc(OCC3CC4(CCCN(c5ccc(C(=O)N[C@H]6CC[C@H](Oc7ccc(C#N)c(Cl)c7)CC6)nn5)C4)C3)cc1)=NCc1nnc(C)n1-2 (stereo partly drawn) [I-489]	< 0.5	–	> 3	< 0.5	–	–
Cc1sc2c(c1C)C(c1ccc(OCC3CC4(CCCN(c5ccc(C(=O)N[C@H]6CC[C@H](Oc7ccc(C#N)c(Cl)c7)CC6)nn5)C4)C3)cc1)=NC1(CC1)c1nnc(C)n1-2 (stereo partly drawn) [I-470]	0.5 to 1.5	–	0.5 to 1.5	–	–	< 0.5
Cc1sc2c(c1C)C(c1ccc(N3CC(C4CCN(c5ccc(C(=O)N[C@H]6CC[C@H](Oc7ccc(C#N)c(Cl)c7)CC6)nn5)CC4)C3)nc1)=NC1(CC1)c1nnc(C)n1-2 [I-503]	1.5 to 3	–	> 3	< 0.5	–	–
Cc1sc2c(c1C)C(c1ccc(CC3CC4(CCCN(c5ccc(C(=O)N[C@H]6CC[C@H](Oc7ccc(C#N)c(Cl)c7)CC6)nn5)C4)C3)cc1)=NCc1nnc(C)n1-2 (stereo partly drawn) [I-474]	> 3	–	> 3	–	–	< 0.5
Cc1sc2c(c1C)C(c1ccc(C#CC3CCC(Cc4ccc(C(=O)N[C@H]5CC[C@H](Oc6ccc(C#N)c(Cl)c6)CC5)nn4)CC3)cc1)=N[C@@H](Cc1ncco1)c1nnc(C)n1-2 (stereo partly drawn) [I-546]	–	0.5 to 1.5	–	–	< 0.5	< 0.5
Cc1sc2c(c1C)C(c1ccc(N3CC(CC4CCCN(c5ccc(C(=O)N[C@H]6CC[C@H](Oc7ccc(C#N)c(Cl)c7)CC6)nn5)C4)C3)cc1)=N[C@@H](C)c1nnc(C)n1-2 (stereo partly drawn) [I-577]	0.5 to 1.5	–	< 0.5	< 0.5	–	–
CCNC(=O)C[C@@H]1N=C(c2ccc(N3CC(N(C)C4CCN(c5ccc(C(=O)N[C@H]6CC[C@H](Oc7ccc(C#N)c(Cl)c7)CC6)nn5)CC4)C3)cc2)c2c(sc(C)c2C)-n2c(C)nnc21 [I-62]	–	< 0.5	–	–	> 3	< 0.5
Cc1sc2c(c1C)C(c1ccc(C3CCC4(CC3)CCN(c3ccc(C(=O)N[C@H]5CC[C@H](Oc6ccc(C#N)c(Cl)c6)CC5)nn3)C4)nc1)=NC1(CC1)c1nnc(C)n1-2 (stereo partly drawn) [I-608]	< 0.5	–	0.5 to 1.5	< 0.5	–	–

More lines, main results first:

GI50 (VCaP cells) [µM]	GI50 (VCaP cells; Homo sapiens, VCaP, 72 h) [µM]	SMILES	GI50 [1] [µM]	GI50 [2] [µM]	GI50 ([1]; 72 h) [µM]	GI50 ([2]; 72 h) [µM]
1.5 to 3	–	Cc1sc2c(c1C)C(c1ccccc1CC1CC3(CCCN(c4ccc(C(=O)N[C@H]5CC[C@H](Oc6ccc(C#N)c(Cl)c6)CC5)nn4)C3)C1)=N[C@@H](C)c1nnc(C)n1-2 (stereo partly drawn) [I-755]	> 3	> 3	–	–
–	0.5 to 1.5	Cc1sc2c(c1C)C(c1ccc(NCC3CC4(C3)CN(c3ncc(C(=O)N[C@H]5CC[C@H](Oc6ccc(C#N)c(Cl)c6)CC5)cn3)C4)cc1)=NC(Cc1ncco1)c1nnc(C)n1-2 (stereo partly drawn) [I-808]	–	–	> 3	< 0.5
–	> 3	Cc1sc2c(c1C)C(c1cccc(N3CC4(CCN(c5ccc(C(=O)N[C@H]6CC[C@H](Oc7ccc(C#N)c(Cl)c7)CC6)nn5)CC4)C3)c1)=N[C@@H](C)c1nnc(C)n1-2 [I-683]	–	–	> 3	> 3
0.5 to 1.5	–	Cc1sc2c(c1C)C(c1ccc(COC3CCC4(CCCN(c5ccc(C(=O)N[C@H]6CC[C@H](Oc7ccc(C#N)c(Cl)c7)CC6)nn5)C4)C3)cc1)=N[C@@H](C)c1nnc(C)n1-2 (stereo partly drawn) [I-624]	0.5 to 1.5	< 0.5	–	–
< 0.5	–	Cc1sc2c(c1C)C(c1ccc(C3CCC4(CCN(c5ccc(C(=O)N[C@H]6CC[C@H](Oc7ccc(C#N)c(Cl)c7)CC6)nn5)C4)C3)cc1)=N[C@@H](C)c1nnc(C)n1-2 (stereo partly drawn) [I-822, N-[4-(3-chloro-4-cyano-phenoxy)cyclohexyl]-6-[8-[4-[(9S)-4,5,9,13-tetramethyl-3-thia-1,8,11,12-tetrazatricyclo[8.3.0.02,6]trideca-2(6),4,7,10,12-pentaen-7-yl]phenyl]-2-azaspiro[4.4]nonan-2-yl]pyridazine-3-carboxamide]	< 0.5	< 0.5	–	–
–	< 0.5	Cc1sc2c(c1C)C(c1ccc(CC3CN(C(C)(C)C4CCN(c5ccc(C(=O)N[C@H]6CC[C@H](Oc7ccc(C#N)c(Cl)c7)CC6)nn5)CC4)C3)cc1)=N[C@@H](C)c1nnc(C)n1-2 [I-640]	–	–	> 3	< 0.5
< 0.5	–	Cc1sc2c(c1C)C(c1ccc(N3CCC4(CCN(c5ccc(C(=O)N[C@H]6CC[C@H](Oc7ccc(C#N)c(Cl)c7)CC6)nn5)C4)C3)cc1F)=N[C@@H](C)c1nnc(C)n1-2 (stereo partly drawn) [I-732]	–	–	< 0.5	< 0.5
–	< 0.5	Cc1sc2c(c1C)C(c1cccc(OC3CC4(CCCN(c5ccc(C(=O)N[C@H]6CC[C@H](Oc7ccc(C#N)c(Cl)c7)CC6)nn5)C4)C3)c1)=N[C@@H](C)c1nnc(C)n1-2 (stereo partly drawn) [I-686]	> 3	–	–	< 0.5
–	< 0.5	Cc1sc2c(c1C)C(c1ccccc1OC1CCN(c3ccc(C(=O)N[C@H]4CC[C@H](Oc5ccc(C#N)c(Cl)c5)CC4)nn3)CC1)=N[C@@H](C)c1nnc(C)n1-2 [I-649]	–	–	> 3	> 3
–	< 0.5	Cc1sc2c(c1C)C(c1ccc(N3C[C@@]4(F)CN(c5ccc(C(=O)N[C@H]6CC[C@H](Oc7ccc(C#N)c(Cl)c7)CC6)nn5)C[C@@]4(F)C3)cc1)=N[C@@H](C)c1nnc(C)n1-2 [I-675]	–	–	< 0.5	< 0.5
–	< 0.5	COCC[C@@H]1N=C(c2ccc(OC3CC4(CCCN(c5ccc(C(=O)N[C@H]6CC[C@H](Oc7ccc(C#N)c(Cl)c7)CC6)nn5)C4)C3)cc2)c2c(sc(C)c2C)-n2c(C)nnc21 (stereo partly drawn) [I-662]	–	–	0.5 to 1.5	< 0.5
–	< 0.5	Cc1sc2c(c1C)C(c1ccc(C3CCC4(CCN(c5ccc(C(=O)N[C@H]6CC[C@H](Oc7ccc(C#N)c(Cl)c7)CC6)nn5)CC4)C3)cn1)=NC1(CC1)c1nnc(C)n1-2 (stereo partly drawn) [I-691]	–	–	> 3	< 0.5
–	< 0.5	COC[C@@H]1N=C(c2ccc(C3CCC4(CCN(c5ccc(C(=O)N[C@H]6CC[C@H](Oc7ccc(C#N)c(Cl)c7)CC6)nn5)CC4)C3)cc2)c2c(sc(C)c2C)-n2c(C)nnc21 (stereo partly drawn) [I-658]	–	–	< 0.5	< 0.5
